Results from patent US5225607A, “Insecticidal ethers” (Imperial Chemical Industries PLC, priority 1985, dated 1993).

Legend:
Assay type in all cases: in vivo
[1] = test system: Tetranychus urticae; test: Insecticidal/acaricidal test, Tetranychus urticae (spider mites - adult), contact; conditions: 72 h, French bean leaf, 3 days, read-out: grading of mortality, TU
Experimental: (§1) The activity of the Product was determined using a variety of insect and acarine pests. The Product was used in the form of liquid preparations containing 500, 250 or 100 parts per million (ppm) by weight of the Product. The preparations were made by dissolving the Product in acetone and diluting the solutions with water containing 0.01% by weight of a wetting agent sold under the trade name "LISSAPOL" NX until the liquid preparations contained the required concentratio of the Product. "Lissapol" is a Registered Trade Mark.
(§2) The test procedure adopted with regard to each pest was basically the same and comprised supporting a number of the pests on a medium which was usually a host plant or a foodstuff on which the pests feed, and treating either or both the pests and the medium with the preparations. The mortality of the pests was then assessed at periods usually varying from one to three days after the treatment.
(§3) The results of the tests are given in Table IV for each of the Products, at the rate in parts per million given in the second column as a grading of mortality designated as A, B or C wherein A indicates 80-100% mortality or knockdown (70-100% in the case of Spodoptera exigua), B indicates 50-79% mortality or knockdown (50-69% in the case of Spodoptera exigua) and C indicates less than 50% mortality or knockdown.
(§4) In Table IV the pest organism used is designated by a letter code and the pest species, the support medium or food, and the type and duration of test is given in Table III.

[2] = test system: Myzus persicae; test: Insecticidal test, Myzus persicae (aphids), contact; conditions: 72 h, Chinese Cabbage leaf, 3 days, read-out: grading of mortality, MP
Experimental: as §1, §2, §3, §4

[3] = test system: Nilaparvata lugens; test: Insecticidal test, Nilaparvata lugens (brown planthopper), contact; conditions: 72 h, Cabbage leaf, 3 days, read-out: grading of mortality, NL
Experimental: as §1, §2, §3, §4

[4] = test system: Musca domestica; test: Knockdown test, Musca domestica (houseflies - adults); conditions: cotton wool/sugar, 4 hours, read-out: grading of knockdown, MD/KD
Experimental: as §1, §2
In the case of the species Musca domestica (housefly), additional tests to determine the knockdown effect of the compounds were performed.
as §3, §4

[5] = test system: Musca domestica; test: Insecticidal test, Musca domestica (houseflies - adults), contact; conditions: 24 h, cotton wool/sugar, 1 day, read-out: grading of mortality, MD
Experimental: as §1, §2, §3, §4

[6] = test system: Blattella germanica; test: Insecticidal test, Blattella germanica (cockroach nymphs), residual; conditions: 72 h, plastic pot, 3 days, read-out: grading of mortality, BG
Experimental: as §1, §2, §3, §4

[7] = test system: Heliothis virescens; test: whole plant or invertebrate; conditions: in Gossypium hirsutum, 72 h, read-out: grading of mortality, HV
Experimental: as §1, §2, §3, §4

[8] = test system: Diabrotica balteata; test: Insecticidal test, Diabrotica balteata (rootworm larvae), residual; conditions: 72 h, filter paper/maize seed, 3 days, read-out: grading of mortality, DB
Experimental: as §1, §2, §3, §4

SMILES | mortality at 500 ppm [1] [%] | mortality at 500 ppm [2] [%] | mortality at 500 ppm [3] [%] | pest or weed control at 500 ppm [4] [%] | mortality at 500 ppm [5] [%] | mortality at 500 ppm [6] [%] | mortality at 500 ppm [7] [%] | mortality at 500 ppm [8] [%] | mortality at 100 ppm [1] [%] | mortality at 100 ppm [2] [%] | mortality at 100 ppm [3] [%] | pest or weed control at 100 ppm [4] [%] | mortality at 100 ppm [5] [%] | mortality at 100 ppm [6] [%] | mortality at 100 ppm [7] [%] | mortality at 100 ppm [8] [%] | further results
CCOc1ccc(C(COCc2cccc(Oc3ccccc3)c2)C(F)(F)F)cc1 (stereo not shown) [Compound 1, 1,1,1-trifluoro-2-(4-ethoxyphenyl)-3-(3-phenoxybenzyloxy)propane] | 80 to 100 | 80 to 100 | 80 to 100 | 80 to 100 | 80 to 100 | 80 to 100 | 80 to 100 | 80 to 100 |  |  |  |  |  |  |  |  | 
CCOc1ccc(C(COCc2c(F)c(F)c(C)c(F)c2F)C(F)(F)F)cc1 (stereo not shown) [Compound 2, 1,1,1-Trifluoro-2-(4-ethoxyphenyl)-3-(4-methyl-2,3,5,6-tetrafluorobenzyloxy)propane] | < 50 | 50 to 79 | 80 to 100 | < 50 | 50 to 79 | 80 to 100 | < 50 | 80 to 100 |  |  |  |  |  |  |  |  | 
CCOc1ccc(C(COCc2cccc(Oc3ccc(Cl)cc3)c2)C(F)(F)F)cc1 (stereo not shown) [Compound 3, 1,1,1-Trifluoro-2-(4-ethoxyphenyl)-3-(3-(4-chlorophenoxy)benzyloxy)propane] |  |  |  |  |  |  |  |  |  |  |  |  |  |  |  |  | mortality at 250 ppm [1]: < 50%; mortality at 250 ppm [2]: 80 to 100%; mortality at 250 ppm [3]: 80 to 100%; pest or weed control at 250 ppm [4]: 80 to 100%; mortality at 250 ppm [5]: 80 to 100%; mortality at 250 ppm [6]: 80 to 100%; mortality at 250 ppm [7]: < 50%; mortality at 250 ppm [8]: 80 to 100%
CCOc1ccc(C(COCc2ccc(F)c(Oc3ccc(Cl)cc3)c2)C(F)(F)F)cc1 (stereo not shown) [Compound 5, 1,1,1-Trifluoro-2-(4-ethoxyphenyl)-3-(3-(4-chlorophenoxy)4-fluorobenzyloxy)propane] | 50 to 79 | 80 to 100 | 80 to 100 | 80 to 100 | 80 to 100 | 80 to 100 | 80 to 100 | 80 to 100 |  |  |  |  |  |  |  |  | 
CCOc1ccc(C(COCc2ccc(F)c(Oc3ccc(Br)cc3)c2)C(F)(F)F)cc1 (stereo not shown) [Compound 6, 1,1,1-Trifluoro-2-(4-ethoxyphenyl)-3-(3-(4-bromophenoxy)-4-fluorobenzyloxy)propane] | 80 to 100 | 80 to 100 | 80 to 100 | 80 to 100 | 80 to 100 | 80 to 100 | 80 to 100 | 80 to 100 |  |  |  |  |  |  |  |  | 
CCOc1ccc(C(COCc2cccc(-c3ccccc3)c2C)C(F)(F)F)cc1 (stereo not shown) [Compound 7, 1,1,1-Trifluoro-2-(4-ethoxyphenyl)-3-(2-methyl-3-phenylbenzyloxy)propane] | 80 to 100 | 80 to 100 | 80 to 100 | 80 to 100 | 80 to 100 | 80 to 100 | < 50 | 80 to 100 |  |  |  |  |  |  |  |  | 
CCOc1ccc(C(COCc2cccc(Oc3ccc(Br)cc3)c2)C(F)(F)F)cc1 (stereo not shown) [Compound 9, 1,1,1-Trifluoro-2-(4-ethoxyphenyl)-3-(3-(4-bromophenoxy)benzyloxy)propane] |  |  |  |  |  |  |  |  |  |  |  |  |  |  |  |  | mortality at 250 ppm [1]: 50 to 79%; mortality at 250 ppm [2]: < 50%; mortality at 250 ppm [3]: < 50%; pest or weed control at 250 ppm [4]: 80 to 100%; mortality at 250 ppm [5]: 80 to 100%; mortality at 250 ppm [6]: 80 to 100%; mortality at 250 ppm [7]: 80 to 100%; mortality at 250 ppm [8]: 80 to 100%
FC(F)(F)C(COCc1cccc(Oc2ccccc2)c1)c1ccc(Cl)cc1 (stereo not shown) [Compound 16, 1,1,1-Trifluoro-2-(4-chlorophenyl)-3-(3-phenoxybenzyloxy)propane] |  |  |  |  |  |  |  |  | < 50 | 80 to 100 | 80 to 100 | 80 to 100 | 80 to 100 | 80 to 100 | 80 to 100 | 80 to 100 | 
Fc1ccc(COCC(c2ccc3c(c2)CCC3)C(F)(F)F)cc1Oc1ccccc1 (stereo not shown) [Compound 19, 1,1,1-Trifluoro-2-(5-indanyl)-3-(3-phenoxy-4-fluorobenzyloxy)propane] |  |  |  |  |  |  |  |  |  |  |  |  |  |  |  |  | mortality at 250 ppm [1]: < 50%; mortality at 250 ppm [2]: 80 to 100%; mortality at 250 ppm [3]: 80 to 100%; pest or weed control at 250 ppm [4]: 80 to 100%; mortality at 250 ppm [5]: 80 to 100%; mortality at 250 ppm [6]: 80 to 100%; mortality at 250 ppm [7]: 80 to 100%; mortality at 250 ppm [8]: 80 to 100%
CCCc1ccc(C(COCc2ccc(F)c(Oc3ccccc3)c2)C(F)(F)F)cc1 (stereo not shown) [Compound 20, 1,1,1-Trifluoro-2-(4-n-propylphenyl)-3-(3-phenoxy-4-fluorobenzyloxy)propane] |  |  |  |  |  |  |  |  | 80 to 100 | 80 to 100 | 80 to 100 | 80 to 100 | 80 to 100 | 80 to 100 | 80 to 100 | 80 to 100 | 
FC(F)(F)Oc1ccc(C(COCc2cccc(Oc3ccc(Cl)cc3)c2)C(F)(F)F)cc1 (stereo not shown) [Compound 26, 1,1,1-Trifluoro-2-(4-trifluoromethoxyphenyl)-3-(3-(4-chlorophenoxy)benzyloxy)propane] |  |  |  |  |  |  |  |  | 80 to 100 | 50 to 79 | 80 to 100 | 80 to 100 | 80 to 100 | 80 to 100 | 80 to 100 | 80 to 100 | 
FC(F)(F)Oc1ccc(C(COCc2cccc(Oc3ccccc3)c2)C(F)(F)F)cc1 (stereo not shown) [Compound 27, 1,1,1-Trifluoro-2-(4-trifluoromethoxyphenyl)-3-(3-phenoxybenzyloxy)propane] |  |  |  |  |  |  |  |  | 80 to 100 | 80 to 100 | 80 to 100 | < 50 | 80 to 100 | 80 to 100 | 80 to 100 | 80 to 100 | 
COc1ccc(C(COCc2ccc(F)c(Oc3ccccc3)c2)C(F)(F)F)cc1 (stereo not shown) [Compound 29, 1,1,1-Trifluoro-2-(4-methoxyphenyl)-3-(3-phenoxy-4-fluorobenzyloxy)propane] |  |  |  |  |  |  |  |  | < 50 | 80 to 100 | 80 to 100 | 80 to 100 | 80 to 100 | 80 to 100 | 80 to 100 | 80 to 100 | 
COc1ccc(C(COCc2cccc(Oc3ccccc3)c2)C(F)(F)F)cc1 (stereo not shown) [Compound 30, 1,1,1-Trifluoro-2-(4-methoxyphenyl)-3-(3-phenoxybenzyloxy)propane] | < 50 | < 50 | 80 to 100 | 80 to 100 | 80 to 100 | 80 to 100 | 80 to 100 | 80 to 100 |  |  |  |  |  |  |  |  | 
CCOc1ccc(C(COCc2ccc(F)c(Oc3ccccc3)c2)C(F)(F)F)cc1 (stereo not shown) [Compound 33, 1,1,1-Trifluoro-2-(4-ethoxyphenyl)-3-(3-phenoxy-4-fluorobenzyloxy)propane] | 80 to 100 | 80 to 100 | 80 to 100 | 80 to 100 | 80 to 100 | 80 to 100 | 80 to 100 | 80 to 100 |  |  |  |  |  |  |  |  | 
OC(COCc1ccc(F)c(Oc2ccccc2)c1)(c1ccc(Cl)cc1)C(F)(F)F (stereo not shown) [Compound 126, 1,1,1-Trifluoro-2-(4-chlorophenyl)-3-(3-phenoxy-4-fluorobenzyloxy)propan-2-ol] | 80 to 100 | < 50 | < 50 | 80 to 100 | < 50 | < 50 |  | < 50 |  |  |  |  |  |  |  |  | 
